Results taken from patent EP2931723B1, “NEW BICYCLIC COMPOUNDS AND THEIR USE AS ANTIBACTERIAL AGENTS AND -LACTAMASE INHIBITORS” (Fedora Pharmaceuticals Inc., priority 2012, dated 2014).

How the values were obtained:
[1] = test system: P. aerug JMI 149; assay: MIC, antibacterial and synergistic activity; type: cell-based; details: P. aerug JMI 149 (Bla+++D+); for MIC Aztreonam + inhibitor: Aztreonam + inhibitor at 4 µg/mL; for MIC Ceftazidime + inhibitor: Ceftazidime + inhibitor at 4 µg/mL; for MIC Meropenem + inhibitor: Meropenem + inhibitor at 4 µg/mL; for MIC: substance alone, read-out: MIC
[2] = target: CTX-M-9 (Escherichia coli, UniProt Q9L5C8); assay: β-lactamase inhibitory activity, spectrophotometric nitrocefin assay; type: biochemical; details: nitrocefin as substrate
Chain of CTX-M-9 (Q9L5C8 29-291): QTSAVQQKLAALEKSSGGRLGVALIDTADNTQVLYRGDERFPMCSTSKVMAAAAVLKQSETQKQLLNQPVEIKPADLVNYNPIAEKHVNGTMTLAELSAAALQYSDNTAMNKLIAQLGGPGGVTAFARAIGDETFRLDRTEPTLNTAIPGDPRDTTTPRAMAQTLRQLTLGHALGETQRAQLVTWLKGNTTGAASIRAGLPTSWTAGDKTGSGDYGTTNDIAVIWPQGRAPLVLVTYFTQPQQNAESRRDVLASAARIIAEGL
Method: (§1) The inhibitory activities of compounds herein disclosed against various enzymes were measured by spectrophotometric assay using […] and using nitrocefin as a substrate [J. Antimicrob. Chemother., 28, pp 775-776 (1991)] . The concentration of inhibitor (IC50) which inhibits by 50% the reaction of hydrolysis of nitrocefin by the enzyme is determined. […] Table 13 Test for β-lactamase Inhibitory Activity

[3] = target: CMY-2 (Klebsiella pneumoniae, UniProt Q48434); assay: as above; type: biochemical; details: nitrocefin as substrate
Chain of CMY-2 (Q48434 21-381, species assumed): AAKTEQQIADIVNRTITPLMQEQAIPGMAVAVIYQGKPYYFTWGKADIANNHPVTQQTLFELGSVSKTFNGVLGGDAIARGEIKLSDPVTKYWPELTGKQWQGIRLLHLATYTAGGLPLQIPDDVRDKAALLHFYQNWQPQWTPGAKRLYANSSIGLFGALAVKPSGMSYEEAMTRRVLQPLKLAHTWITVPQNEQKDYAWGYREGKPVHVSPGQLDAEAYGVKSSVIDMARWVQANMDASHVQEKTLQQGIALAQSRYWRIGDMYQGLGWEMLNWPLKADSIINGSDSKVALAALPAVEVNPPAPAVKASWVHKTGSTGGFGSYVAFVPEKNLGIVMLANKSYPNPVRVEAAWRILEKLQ
Method: as §1

[4] = target: KPC-2 (Klebsiella pneumoniae, UniProt Q9F663); assay: as above; type: biochemical; details: nitrocefin as substrate
Chain of KPC-2 (Q9F663 25-293, looked up, species assumed): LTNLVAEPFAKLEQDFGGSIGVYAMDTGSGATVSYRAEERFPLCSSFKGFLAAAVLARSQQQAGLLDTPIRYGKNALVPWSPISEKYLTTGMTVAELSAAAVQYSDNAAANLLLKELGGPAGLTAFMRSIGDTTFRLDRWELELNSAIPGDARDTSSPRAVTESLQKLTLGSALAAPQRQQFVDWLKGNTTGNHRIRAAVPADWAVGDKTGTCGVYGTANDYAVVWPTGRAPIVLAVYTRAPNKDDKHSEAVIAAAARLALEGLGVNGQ
Method: as §1

[5] = target: TEM-1 (Escherichia coli, UniProt P62593); assay: as above; type: biochemical; details: nitrocefin as substrate
Chain of TEM-1 (P62593 24-286 limits assumed): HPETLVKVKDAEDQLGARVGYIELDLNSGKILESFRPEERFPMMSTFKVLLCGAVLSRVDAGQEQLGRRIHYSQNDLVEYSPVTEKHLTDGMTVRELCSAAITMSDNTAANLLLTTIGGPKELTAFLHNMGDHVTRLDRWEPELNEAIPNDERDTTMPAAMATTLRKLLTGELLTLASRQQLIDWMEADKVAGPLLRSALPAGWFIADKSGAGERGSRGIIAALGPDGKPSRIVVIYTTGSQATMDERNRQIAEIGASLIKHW
Method: as §1

[6] = test system: E. coli JMI 10767; assay: MIC, antibacterial and synergistic activity; type: cell-based; details: E. coli JMI 10767 (Wt); for MIC Aztreonam + inhibitor: Aztreonam + inhibitor at 4 µg/mL; for MIC Ceftazidime + inhibitor: Ceftazidime + inhibitor at 4 µg/mL
Method: (§2) In the Tables 10 - 12, compounds herein disclosed were tested in combination with various antibiotics against metallo β-lactamase producing bacteria. Table 3: Synergy of the inhibitor Ex. 1 (4 µg/mL) in combination with antibiotics

[7] = test system: E. coli JMI 2671; assay: MIC, antibacterial and synergistic activity; type: cell-based; details: for MIC Aztreonam + inhibitor / MIC Ceftazidime + inhibitor / MIC Meropenem + inhibitor: E. coli JMI 2671 (VIM-19 (Cpase)); for MIC Aztreonam + inhibitor: Aztreonam + inhibitor at 4 µg/mL; for MIC Ceftazidime + inhibitor: Ceftazidime + inhibitor at 4 µg/mL; for MIC Meropenem + inhibitor: Meropenem + inhibitor at 4 µg/mL; for MIC: Escherichia coli, JMI2671, E. coli JMI 2671 (VIM-19 (Cpase)), substance alone
Summary of the method: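 Combination MIC assay. The β-lactamase inhibitor is kept at 4 µg/mL while antibiotic susceptibility of MBL-expressing isolates is determined.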

[8] = test system: P. aerug JMI 2686; assay: MIC, antibacterial and synergistic activity; type: cell-based; details: P. aerug JMI 2686 (KPC-2 (Cpase)); for MIC Aztreonam + inhibitor: Aztreonam + inhibitor at 4 µg/mL; for MIC Ceftazidime + inhibitor: Ceftazidime + inhibitor at 4 µg/mL; for MIC Meropenem + inhibitor: Meropenem + inhibitor at 4 µg/mL
Summary of the method: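 This antibacterial synergy assay measured the minimum inhibitory concentration of antibiotics combined with the disclosed inhibitor compounds. The inhibitor was held at 4 µg/mL throughout. The aim was to see whether the added compound strengthened the antibiotic's action against the tested bacteria.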

[9] = test system: E. coli JMI 10770; assay: MIC, antibacterial and synergistic activity; type: cell-based; details: E. coli JMI 10770 (CTX-M15 (Hyper ESBL)); for MIC Aztreonam + inhibitor: Aztreonam + inhibitor at 4 µg/mL; for MIC Ceftazidime + inhibitor: Ceftazidime + inhibitor at 4 µg/mL; for MIC Meropenem + inhibitor: Meropenem + inhibitor at 4 µg/mL
Method: as §2

[10] = test system: K. pneumo JMI 2674; assay: MIC, antibacterial and synergistic activity; type: cell-based; details: K. pneumo JMI 2674 (CTX-M15 (ESBL)); for MIC Aztreonam + inhibitor: Aztreonam + inhibitor at 4 µg/mL; for MIC Ceftazidime + inhibitor: Ceftazidime + inhibitor at 4 µg/mL; for MIC Meropenem + inhibitor: Meropenem + inhibitor at 4 µg/mL
Summary of the method: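 Antibacterial activity was assessed as minimum inhibitory concentrations against a β-lactamase-producing bacterial strain. Each test inhibitor was combined with an antibiotic, with the inhibitor held at a fixed 4 µg/mL, to determine whether it acted synergistically and restored the antibiotic's effect against the resistant organism.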

[11] = test system: E. cloacae JMI 36; assay: MIC, antibacterial and synergistic activity; type: cell-based; details: E. cloacae JMI 36 (P99); for MIC Aztreonam + inhibitor: Aztreonam + inhibitor at 4 µg/mL; for MIC Ceftazidime + inhibitor: Ceftazidime + inhibitor at 4 µg/mL; for MIC Meropenem + inhibitor: Meropenem + inhibitor at 4 µg/mL; for MIC: Enterobacter cloacae, JMI36, substance alone, read-out: MIC
[12] = test system: E. coli JMI 10770; assay: MIC, antibacterial and synergistic activity; type: cell-based; details: Escherichia coli, JMI10770; E. coli JMI 10770 (CTX-M15 (Hyper ESBL)); substance alone
[13] = test system: metallo β-lactamase producing bacteria; assay: MIC in combination with various antibiotics against metallo β-lactamase producing bacteria (Tables 10-12); type: cell-based; details: Enterobacter cloacae, agent alone
Method: In the Tables 10 - 12, compounds herein disclosed were tested in combination with various antibiotics against metallo β-lactamase producing bacteria.

[14] = test system: K. pneumo JMI 2681; assay: MIC, antibacterial and synergistic activity; type: cell-based; details: K. pneumo JMI 2681 (Oxa-48 (Cpase)); for MIC Aztreonam + inhibitor: Aztreonam + inhibitor at 4 µg/mL; for MIC Ceftazidime + inhibitor: Ceftazidime + inhibitor at 4 µg/mL; for MIC Meropenem + inhibitor: Meropenem + inhibitor at 4 µg/mL; for MIC: substance alone, read-out: MIC

## CC(=O)NNC(=O)[C@@H]1CC[C@@H]2CN1C(=O)N2OS(=O)(=O)O [Ex. 5, (2S,5R)-N'-acetyl-7-oxo-6-(sulfooxy)-1,6-diazabicyclo[3.2.1]octane-2-carbohydrazide]
[1]
  MIC Aztreonam + inhibitor: >4 µg/mL
  MIC Ceftazidime + inhibitor: >16 µg/mL
  MIC Meropenem + inhibitor: 0.5 µg/mL
  MIC: > 16 µg/mL
[2]
  IC50: 0.327 ± 0.02 µM
[3]
  IC50: 0.008 ± 0.001 µM
[4]
  IC50: 0.091 ± 0.009 µM
[5]
  IC50: 0.052 ± 0.004 µM
[6]
  MIC Aztreonam + inhibitor: ≤0.062 µg/mL
  MIC Ceftazidime + inhibitor: ≤0.25 µg/mL
[7]
  MIC Aztreonam + inhibitor: ≤0.062 µg/mL
  MIC Ceftazidime + inhibitor: 2 µg/mL
  MIC Meropenem + inhibitor: 0.25 µg/mL
  MIC: 16 µg/mL
[8]
  MIC Aztreonam + inhibitor: >4 µg/mL
  MIC Ceftazidime + inhibitor: >16 µg/mL
  MIC Meropenem + inhibitor: >2 µg/mL
[9]
  MIC Aztreonam + inhibitor: ≤0.062 µg/mL
  MIC Ceftazidime + inhibitor: ≤0.25 µg/mL
  MIC Meropenem + inhibitor: ≤0.031 µg/mL
[10]
  MIC Aztreonam + inhibitor: 0.125 µg/mL
  MIC Ceftazidime + inhibitor: ≤0.25 µg/mL
  MIC Meropenem + inhibitor: 0.062 µg/mL
[11]
  MIC Aztreonam + inhibitor: >4 µg/mL
  MIC Ceftazidime + inhibitor: 16 µg/mL
  MIC Meropenem + inhibitor: 0.125 µg/mL
  MIC: > 16 µg/mL
[12]
  MIC: 8 µg/mL
[13]; Isolate No 4, Enzyme VIM-6
  MIC: 64
[13]; Isolate No 10, Enzyme IMP-26
  MIC: 64
[14]
  MIC Aztreonam + inhibitor: 0.5 µg/mL
  MIC Ceftazidime + inhibitor: ≤0.25 µg/mL
  MIC Meropenem + inhibitor: 2 µg/mL
  MIC: 16 µg/mL

## CCC(=O)NNC(=O)[C@@H]1CC[C@@H]2CN1C(=O)N2OS(=O)(=O)O [Ex. 8, (2S,5R)-7-oxo-N'-propanoyl-6-(sulfooxy)-1,6-diazabicyclo[3.2.1]octane-2-carbohydrazide]
[1]
  MIC Aztreonam + inhibitor: >4 µg/mL
  MIC Ceftazidime + inhibitor: >16 µg/mL
  MIC Meropenem + inhibitor: 0.5 µg/mL
  MIC: > 16 µg/mL
[6]
  MIC Aztreonam + inhibitor: ≤0.062 µg/mL
  MIC Ceftazidime + inhibitor: ≤0.25 µg/mL
[7]
  MIC Aztreonam + inhibitor: ≤0.062 µg/mL
  MIC Ceftazidime + inhibitor: 0.5 µg/mL
  MIC Meropenem + inhibitor: 1 µg/mL
  MIC: > 16 µg/mL
[8]
  MIC Aztreonam + inhibitor: >4 µg/mL
  MIC Ceftazidime + inhibitor: >16 µg/mL
  MIC Meropenem + inhibitor: >2 µg/mL
[9]
  MIC Aztreonam + inhibitor: ≤0.062 µg/mL
  MIC Ceftazidime + inhibitor: ≤0.25 µg/mL
  MIC Meropenem + inhibitor: ≤0.0312 µg/mL
[10]
  MIC Aztreonam + inhibitor: ≤0.062 µg/mL
  MIC Ceftazidime + inhibitor: ≤0.25 µg/mL
  MIC Meropenem + inhibitor: 0.062 µg/mL
[11]
  MIC Aztreonam + inhibitor: 0.125 µg/mL
  MIC Ceftazidime + inhibitor: 0.5 µg/mL
  MIC Meropenem + inhibitor: 0.25 µg/mL
  MIC: > 16 µg/mL
[12]
  MIC: > 16 µg/mL
[14]
  MIC Aztreonam + inhibitor: 0.125 µg/mL
  MIC Ceftazidime + inhibitor: ≤0.25 µg/mL
  MIC Meropenem + inhibitor: 0.5 µg/mL
  MIC: > 16 µg/mL
